US7009052B2, “Sulfonamide derivatives” (Warner Lambert Company LLC, priority 2003, dated 2006)

molecular target: T1, androgen receptor (Homo sapiens, UniProt P10275); experiment: AR Antagonist Cell Assay (MMTV-luciferase reporter, DHT-induced); assay type: cell-based; details: MDA-MB453-MMTV clone 54-19 cells, 100 pM DHT, 17 hr
T1 sequence (P10275 1-920 Q868H): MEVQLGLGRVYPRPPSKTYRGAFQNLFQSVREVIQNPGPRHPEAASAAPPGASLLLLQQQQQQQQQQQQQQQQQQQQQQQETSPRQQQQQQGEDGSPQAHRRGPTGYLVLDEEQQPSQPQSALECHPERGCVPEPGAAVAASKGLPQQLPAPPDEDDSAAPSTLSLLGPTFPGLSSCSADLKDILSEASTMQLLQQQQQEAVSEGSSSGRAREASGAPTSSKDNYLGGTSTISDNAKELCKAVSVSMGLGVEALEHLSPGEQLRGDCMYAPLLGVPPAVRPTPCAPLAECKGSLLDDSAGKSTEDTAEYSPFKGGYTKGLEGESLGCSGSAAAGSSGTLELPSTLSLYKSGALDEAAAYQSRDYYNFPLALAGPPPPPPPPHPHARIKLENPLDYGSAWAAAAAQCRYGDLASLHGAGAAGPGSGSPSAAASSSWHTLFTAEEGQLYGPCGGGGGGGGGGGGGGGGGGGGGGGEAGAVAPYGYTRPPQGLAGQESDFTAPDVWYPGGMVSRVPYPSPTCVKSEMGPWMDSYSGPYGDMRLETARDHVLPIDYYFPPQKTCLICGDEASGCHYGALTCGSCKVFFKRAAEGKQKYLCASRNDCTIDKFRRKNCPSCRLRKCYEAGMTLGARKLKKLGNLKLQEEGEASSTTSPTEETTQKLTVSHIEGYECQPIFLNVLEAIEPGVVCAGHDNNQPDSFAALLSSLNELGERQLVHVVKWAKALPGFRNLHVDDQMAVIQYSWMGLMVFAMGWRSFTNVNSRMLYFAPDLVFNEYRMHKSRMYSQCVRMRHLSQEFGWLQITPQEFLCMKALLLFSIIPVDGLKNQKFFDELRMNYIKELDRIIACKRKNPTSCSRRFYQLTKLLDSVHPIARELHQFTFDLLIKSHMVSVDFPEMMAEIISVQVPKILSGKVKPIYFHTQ
Protocol: The compounds ability to antagonize the effects of androgen on the androgen receptor were determined in the protocol described immediately below.
Experimental Procedure for AR Antagonist Cell Assay
Cell line: MDA-MB453-MMTV clone 54-19. This cell line is a stable transfected cell line with MDA-MB453 cell background (human breast tumor cell expressing high level of androgen receptor). A MMTV minimal promoter containing ARE was first cloned in front of a firefly luciferase reporter gene. Then the cascade was cloned into transfection vector pUV120puro. Electroporation method was used for transfecting MDA-MB-453 cell. Puromycin resistant stable cell line was selected.
Cell Culture Media and Reagents:
Culture medium: DMEM (high glucose, Gibco cat #: 11960-044), 10% FBS, and 1% L-glutamine
Plating medium: DMEM (phenol red free), 10% charcoal treated HyClone serum, 1% L-glutamine
Assay medium: DMEM (phenol red free), 1% charcoal treated HyClone serum, 1% L-glutamine, and 1% penicillin/streptomycin
3× luciferase buffer: 2% beta-mercaptoethanol, 0.6% ATP, 0.0135% luciferine in cell lysis buffer
• 1. Cells are maintained in culture medium, splitting cells when they reach 80–90% confluence • 2. To test compounds, 10,000 cells/well are plated to opaque 96 cell culture plate in 100 ul/well plating medium, culture for overnight at 37° C. in cell culture incubator • 3. Carefully remove plating medium, then add 80 ul/well of pre-warmed assay medium, add 10 ul/well testing compound (final concentration at 10 uM or 1 uM), incubate at 37° C. for 30 minutes • 4. Add 10 ul/well freshly prepared DHT (final concentration at 100 pM) to each well, incubate at 37° C. for 17 hr (overnight) • 5. Add 50 ul/well 3× luciferase buffer, incubate at room temperature for 5 minutes, then count on Luminometer The fold induction over background by 100 pM DHT in the absence of testing compounds is standardized as 100% and experimental result is expressed as percentage of inhibition by testing compounds. TABLE3

| IC50 [µM] | Compound |
| --- | --- |
| > 10 | CCCCN(C)S(=O)(=O)c1ccc2c(c1)c(C(F)(F)F)cc(=O)n2C [Example 8, 1-Methyl-2-oxo-4-trifluoromethyl-1,2-dihydroquinoline-6-sulfonicacid butyimethylamide] |
| > 10 | Cn1c(=O)cc(C(F)(F)F)c2cc(S(=O)(=O)Nc3cnc4ccccc4c3)ccc21 [Example 33, 1-Methyl-2-oxo-4-trifluoromethyl-1,2-dihydroquinoline-6-sulfonicacid quinolin-3-ylamide] |
| > 10 | O=c1cc(C(F)(F)F)c2cc(S(=O)(=O)NCc3cccnc3)ccc2o1 [Example 64, 2-Oxo-4-trifluoromethyl-2H-chromene-6-sulfonic acid(pyridin-3-ylmethyl)amide] |
| 0.45 | CC(C)Oc1cccc(NS(=O)(=O)c2ccc3[nH]c(=O)cc(C(F)(F)F)c3c2)c1 [Example 105, 2-Oxo-4-trifluoromethyl-1,2-dihydroquinoline-6-sulfonic acid(3-isopropoxyphenyl)amide] |
| > 10 | CC(C)(NS(=O)(=O)c1ccc2oc(=O)cc(C(F)(F)F)c2c1)c1ccccc1 [Example 65, 2-Oxo-4-trifluoromethyl-2H-chromene-6-sulfonic acid (1-methyl-1-phenylethyl)amide] |
| 6.73 | O=c1cc(C(F)(F)F)c2cc(S(=O)(=O)NCCCO)ccc2[nH]1 [Example 157, 2-Oxo-4-trifluoromethyl-1,2-dihydroquinoline-6-sulfonic acid(3-hydroxypropyl)amide] |
| 3.72 | CSc1cccc(NS(=O)(=O)c2ccc3c(c2)c(C(F)(F)F)cc(=O)n3C)c1 [Example 29, 1-Methyl-2-oxo-4-trifluoromethyl-1,2-dihydroquinoline-6-sulfonicacid (3-methylsulfanylphenyl)amide] |
| 0.21 | O=c1cc(C(F)(F)F)c2cc(S(=O)(=O)NCCC3=CCCCC3)ccc2[nH]1 [Example 132, 2-Oxo-4-trifluoromethyl-1,2-dihydroquinoline-6-sulfonic acid(2-cyclohex-1-enylethyl)amide] |
| 1.6 | CC(C)OCCCNS(=O)(=O)c1ccc2[nH]c(=O)cc(C(F)(F)F)c2c1 [Example 127, 2-Oxo-4-trifluoromethyl-1,2-dihydroquinoline-6-sulfonic acid(3-isopropoxypropyl)amide] |
| 5.72 | CN(C1CCCCC1)S(=O)(=O)c1ccc2[nH]c(=O)cc(C(F)(F)F)c2c1 [Example 75, 2-Oxo-4-trifluoromethyl-1,2-dihydroquinoline-6-sulfonic acidcyclohexylmethylamide] |
| 2.26 | O=c1cc(C(F)(F)F)c2cc(S(=O)(=O)N[C@H]3[C@@H]4CC[C@@H](C4)[C@H]3CO)ccc2[nH]1 [Example 148, 2-Oxo-4-trifluoromethyl-1,2-dihydroquinoline-6-sulfonic acid(3-hydroxy-methylbicyclo[2.2.1]hept-2-yl)] |
| 1.31 | O=c1cc(C(F)(F)F)c2cc(S(=O)(=O)N(CCO)Cc3ccccc3)ccc2[nH]1 [Example 71, 2-Oxo-4-trifluoromethyl-1,2-dihydroquinoline-6-sulfonic acidbenzyl(2-hydroxyethyl)amide] |
| 6.61 | O=c1cc(C(F)(F)F)c2cc(S(=O)(=O)NCc3cc(C(F)(F)F)ccc3F)ccc2[nH]1 [Example 158, 2-Oxo-4-trifluoromethyl-1,2-dihydroquinoline-6-sulfonic acid2-fluoro-5-trifluoromethylbenzylamide] |
| > 10 | Cc1cc2c(NS(=O)(=O)c3ccc4[nH]c(=O)cc(C(F)(F)F)c4c3)cccc2nn1 [Example 108, 2-Oxo-4-trifluoromethyl-1,2-dihydroquinoline-6-sulfonic acid(3-methylcinnolin-5-yl)amide] |
| 3.13 | O=c1cc(C(F)(F)F)c2cc(S(=O)(=O)Nc3cccc(CO)c3)ccc2[nH]1 [Example 91, 2-Oxo-4-trifluoromethyl-1,2-dihydroquinoline-6-sulfonic acid(3-hydroxymethylphenyl)amide] |
| 5.03 | CCc1cccc(NS(=O)(=O)c2ccc3c(c2)c(C(F)(F)F)cc(=O)n3C)c1 [Example 16, 1-Methyl-2-oxo-4-trifluoromethyl-1,2-dihydroquinoline-6-sulfonicacid (3-ethylphenyl)amide] |
| 0.76 | Cc1cccc(NS(=O)(=O)c2ccc3c(c2)c(C(F)(F)F)cc(=O)n3C)c1 [Example 13, 1-Methyl-2-oxo-4-trifluoromethyl-1,2-dihydroquinoline-6-sulfonicacid m-tolylamide] |
| 2.93 | O=c1cc(C(F)(F)F)c2cc(S(=O)(=O)NC3CCCCCC3)ccc2[nH]1 [Example 126, 2-Oxo-4-trifluoromethyl-1,2-dihydroquinoline-6-sulfonic acidcycloheptylamide] |
| 0.82 | O=c1cc(C(F)(F)F)c2cc(S(=O)(=O)NC3CCCC3)ccc2[nH]1 [Example 120, 2-Oxo-4-trifluoromethyl-1,2-dihydroquinoline-6-sulfonic acidcyclopentylamide] |
| > 10 | CCCCN(CCO)S(=O)(=O)c1ccc2c(c1)c(C(F)(F)F)cc(=O)n2C [Example 5, 1-Methyl-2-oxo-4-trifluoromethyl-1,2-dihydroquinoline-6-sulfonicacid butyl(2-hydroxyethyl)-amide] |
| 3.76 | Cc1ccc(F)cc1CNS(=O)(=O)c1ccc2[nH]c(=O)cc(C(F)(F)F)c2c1 [Example 137, 2-Oxo-4-trifluoromethyl-1,2-dihydroquinoline-6-sulfonic acid5-fluoro-2-methylbenzylamide] |
| > 10 | Cc1cccc(C)c1NS(=O)(=O)c1ccc2c(c1)c(C(F)(F)F)cc(=O)n2C [Example 18, 1-Methyl-2-oxo-4-trifluoromethyl-1,2-dihydroquinoline-6-sulfonicacid (2,6-dimethylphenyl)amide] |
| 0.34 | COc1cccc(NS(=O)(=O)c2ccc3[nH]c(=O)cc(C(F)(F)F)c3c2)c1 [Example 116, 2-Oxo-4-trifluoromethyl-1,2-dihydroquinoline-6-sulfonic acid(3-methoxyphenyl)amide] |
| > 10 | O=c1cc(C(F)(F)F)c2cc(S(=O)(=O)Nc3ccc(CCO)cc3)ccc2[nH]1 [Example 113, 2-Oxo-4-trifluoromethyl-1,2-dihydroquinoline-6-sulfonic acid[4-(2-hydroxyethyl)phenyl]amide] |
| 0.15 | CN(CCc1ccccc1)S(=O)(=O)c1ccc2[nH]c(=O)cc(C(F)(F)F)c2c1 [Example 78, 2-Oxo-4-trifluoromethyl-1,2-dihydroquinoline-6-sulfonic acidmethylphenethylamide] |

| Compound | IC50 [µM] |
| --- | --- |
| CCCCCN(CCO)S(=O)(=O)c1ccc2[nH]c(=O)cc(C(F)(F)F)c2c1 [Example 74, 2-Oxo-4-trifluoromethyl-1,2-dihydroquinoline-6-sulfonic acid(2-hydroxyethyl)-pentylamide] | 0.29 |
| CN(C)CCN(C)S(=O)(=O)c1ccc2[nH]c(=O)cc(C(F)(F)F)c2c1 [Example 72] | > 10 |
| CCCCN(C)S(=O)(=O)c1ccc2[nH]c(=O)cc(C(F)(F)F)c2c1 [Example 76, 2-Oxo-4-trifluoromethyl-1,2-dihydroquinoline-6-sulfonic acidbutylmethylamide] | 0.21 |
| COCCN(CCOC)S(=O)(=O)c1ccc2[nH]c(=O)cc(C(F)(F)F)c2c1 [Example 80, 2-Oxo-4-trifluoromethyl-1,2-dihydroquinoline-6-sulfonic acidbis(2-methoxyethyl)amide] | > 10 |
